Measured values as given in ChEMBL document CHEMBL1201862, “PubChem BioAssay data set” (2004).
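Step 1: Grow cells in 96-well plates. Step 2: Expose to compound for 48 hours at 5 concentrations. Step 3: Interpolate endpoints linearly; if unreached, use highest concentration. GI50 = concentration required for 50% inhibition of growth.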 Activity calls are given as the source filed them. No stated cut-off is given here; in the data, active = GI50 up to about 1.1 µM and inactive = higher.

Tests used:
Assay in all cases: growth of human tumour cells (NCI), 48 h
DMS-273 = tested on: DMS-273
DLD-1 = tested on: DLD-1
XF498 = tested on: XF498
KM-20L2 = tested on: KM-20L2
DMS-114 = tested on: DMS-114
M19-MEL = tested on: M19-MEL
HOP-18 = tested on: HOP-18
LXFL 529 = tested on: LXFL 529
RXF 631 = tested on: RXF 631

SMILES | GI50 (DMS-273) | GI50 (DLD-1) | GI50 (XF498) | GI50 (KM-20L2) | GI50 (DMS-114) | GI50 (M19-MEL) | GI50 (HOP-18) | GI50 (LXFL 529) | GI50 (RXF 631)
O=C(Nc1ccccc1)n1cc(-c2ccccn2)c(N2CCOCC2)n1 | 3.44 µM (inactive) | 6.61 µM (inactive) | 9.23 µM (inactive) | 2.68 µM (inactive) | 5.36 µM (inactive) | 6.61 µM (inactive) | > 100 µM (inactive) | 7.89 µM (inactive) | 
N#CC(c1ccc(Cl)cc1)c1cccc(Cl)n1 (stereo unspecified) |  | 83 µM (inactive) | 24.8 µM (inactive) | 80.4 µM (inactive) |  | 60.1 µM (inactive) |  | 30.3 µM (inactive) | 
CC1=CC(=O)NP(=O)(Oc2ccc(C)cc2)N1 (stereo unspecified) | > 100 µM (inactive) | > 100 µM (inactive) | > 100 µM (inactive) | > 100 µM (inactive) | > 100 µM (inactive) | > 100 µM (inactive) | > 100 µM (inactive) | > 100 µM (inactive) | > 100 µM (inactive)
CCCOCN1COCN/C1=N\C#N | 18 µM (inactive) | 70.1 µM (inactive) | > 100 µM (inactive) | 36.2 µM (inactive) | 22 µM (inactive) | 30.9 µM (inactive) | 32.8 µM (inactive) | > 100 µM (inactive) | 
COc1ccc([C@@H]2OC(=O)C3C2C(=O)O[C@H]3c2ccc(OC)cc2)cc1 (stereo partly specified) | > 100 µM (inactive) | > 100 µM (inactive) | > 100 µM (inactive) | > 100 µM (inactive) | > 100 µM (inactive) | > 100 µM (inactive) | > 100 µM (inactive) | > 100 µM (inactive) | > 100 µM (inactive)
Cc1ccc(Sc2ccc(C)cc2[N+](=O)[O-])c([N+](=O)[O-])c1 | > 100 µM (inactive) |  | > 100 µM (inactive) | > 100 µM (inactive) | > 100 µM (inactive) | > 100 µM (inactive) | > 100 µM (inactive) | > 100 µM (inactive) | 
COc1cc(NS(C)(=O)=O)ccc1Nc1c2ccccc2nc2c1[nH]c1ccc(NC3OC(CO)C(O)C(O)C3O)cc12 (stereo unspecified) | < 0.01 µM (active) | 0.293 µM (active) |  | 0.163 µM (active) | < 0.01 µM (active) | 0.165 µM (active) | 0.048 µM (active) | 0.9 µM (active) | 
CCOC(=O)[C-]([N+]#N)[Si](C)(C)C | > 100 µM (inactive) | > 100 µM (inactive) | 56.9 µM (inactive) | > 100 µM (inactive) | > 100 µM (inactive) | > 100 µM (inactive) | > 100 µM (inactive) |  | 
Cc1cccc(C)c1NC(=O)CCC(=O)CC(=O)C(C)C | > 100 µM (inactive) | > 100 µM (inactive) | > 100 µM (inactive) | > 100 µM (inactive) | > 100 µM (inactive) | > 100 µM (inactive) | > 100 µM (inactive) | > 100 µM (inactive) | 
O=C(O)CNc1c2ccccc2nc2ccccc12 | > 100 µM (inactive) | > 100 µM (inactive) | > 100 µM (inactive) | > 100 µM (inactive) | 60.4 µM (inactive) |  |  | > 100 µM (inactive) | > 100 µM (inactive)
NC(=O)C(=O)N/N=C1\C(=O)N(c2ccc(Cl)cc2Cl)C(=O)C1C(=O)Nc1ccc(Cl)cc1Cl (stereo unspecified) | > 100 µM (inactive) | > 100 µM (inactive) | > 100 µM (inactive) | > 100 µM (inactive) | > 100 µM (inactive) | > 100 µM (inactive) | 76.9 µM (inactive) | > 100 µM (inactive) | 
c1ccc(COCC2OC3c4ccccc4COC3C2OCc2ccccc2)cc1 (stereo unspecified) | 83.6 µM (inactive) | > 100 µM (inactive) |  | > 100 µM (inactive) | 49.5 µM (inactive) | > 100 µM (inactive) | > 100 µM (inactive) |  | > 100 µM (inactive)
CC1OC(n2cc(C(F)(F)F)c(=O)[nH]c2=O)C=CC1=O (stereo unspecified) |  | 18.8 µM (inactive) | 16.6 µM (inactive) | 22.3 µM (inactive) |  | 20.3 µM (inactive) |  | 17.1 µM (inactive) | 12.7 µM (inactive)
O=C1Nc2ccccc2N=CC1NC(=O)C(c1ccccc1)c1ccccc1 (stereo unspecified) | > 100 µM (inactive) | > 100 µM (inactive) |  | > 100 µM (inactive) | 86.5 µM (inactive) | > 100 µM (inactive) | > 100 µM (inactive) | > 100 µM (inactive) | > 100 µM (inactive)
O=C(COc1ccc(Cl)cc1)N1CCN(C(=O)COc2ccc(Cl)cc2)c2ccccc21 | 39.2 µM (inactive) | 64 µM (inactive) | 24.5 µM (inactive) | > 100 µM (inactive) | 29.5 µM (inactive) | 38.1 µM (inactive) | 71.3 µM (inactive) | 37.4 µM (inactive) | 
CC12CP(=O)(c3ccccc3)CC1C2(Cl)Cl (stereo unspecified) | > 100 µM (inactive) | > 100 µM (inactive) | > 100 µM (inactive) | > 100 µM (inactive) | > 100 µM (inactive) | > 100 µM (inactive) | > 100 µM (inactive) | > 100 µM (inactive) | 
CC(=O)Nc1c(Nc2ccccc2)[nH]c(C)nc1=S | > 100 µM (inactive) | > 100 µM (inactive) | > 100 µM (inactive) | > 100 µM (inactive) | > 100 µM (inactive) |  |  | > 100 µM (inactive) | 
CC(=O)OCC1OC(N2C(=O)C(=O)c3ccccc32)C(OC(C)=O)C(OC(C)=O)C1OC(C)=O (stereo unspecified) | > 100 µM (inactive) | > 100 µM (inactive) |  | > 100 µM (inactive) | > 100 µM (inactive) | 91.2 µM (inactive) | > 10 µM (inactive) | > 100 µM (inactive) | > 100 µM (inactive)
CCOC12OC3=C(CC1CC1=C(CCC1=O)O2)C(=O)CC3 (stereo unspecified) | > 100 µM (inactive) | > 100 µM (inactive) |  | > 100 µM (inactive) | > 100 µM (inactive) | > 100 µM (inactive) | > 100 µM (inactive) | > 100 µM (inactive) | > 100 µM (inactive)
Cc1c(Cl)ccc2[s+]snc12 | 38.2 µM (inactive) | 25.4 µM (inactive) | 25.3 µM (inactive) | > 100 µM (inactive) |  | 33 µM (inactive) | 29 µM (inactive) | 29.6 µM (inactive) | 33.4 µM (inactive)
O=C1C2C3C=C4c5ccccc5N(c5ccccc5)C4(C2C(=O)N1c1ccc(Cl)cc1)[C@H]1C(=O)N(c2ccc(Cl)cc2)C(=O)[C@@H]31 (stereo partly specified) | > 100 µM (inactive) | > 100 µM (inactive) | > 100 µM (inactive) | > 100 µM (inactive) | > 100 µM (inactive) | > 100 µM (inactive) | > 100 µM (inactive) | > 100 µM (inactive) | 6.49 µM (inactive)
Cc1ccc(-c2cc(O)c3cc4c(cc3n2)OCO4)cc1 | 1.35 µM (inactive) | 0.859 µM (active) |  | 1.67 µM (inactive) | 2.48 µM (inactive) | 0.805 µM (active) | 3.07 µM (inactive) | 0.748 µM (active) | 
